{"source": "patent US7968575B2", "about": "“Nitric oxide donors and uses thereof” (priority 2004, dated 2011)", "key": {"[1]": {"system": "anesthetized hypertensive Sprague-Dawley male rats", "test": "Hypotensive effects: mean arterial pressure after iv bolus", "assay_type": "in vivo, rat", "details": "rats pre-treated with phenylephrine, iv bolus doses; in words", "description": "Mean arterial pressure (MAP) was monitored and determined during bolus infusion of Pet-2, Pet-3, Pet-7, Pet-8, Pet-12 and Pet-13. Briefly, polyethylene catheters (PE50) were inserted into the carotid artery and into the jugular vein of anesthetized hypertensive Sprague-Dawley male rats (200-300 grams). A blood pressure recorder was placed within the carotid artery. Phenylephrine (0.1 mg) was then injected and the mean arterial blood pressure (MABP) was monitored continuously until a stable baseline was reached. The hypotensive effects of intravenous (iv) bolus doses (0.1 mg of each tested compound) administered intravenously at the jugular vein in minimal volume of vehicle (0.2 ml per dose) were evaluated. Five minutes were allowed between each dose, during which the maximal decrease in MAP was recorded and a dose-response graph comparing the hypotensive effect of the compounds was constructed."}, "[2]": {"system": "c-GMP", "test": "Induction of in vivo nitrate tolerance (cGMP in aorta isolated after 16 hour infusion)", "design": "species or system rat", "details": "in words", "description": "For c-GMP levels and tolerance development, the rat's thoracic aorta was isolated after exposure to the tested compound in vivo, and measured as described above in the in vitro assays.\nMale Sprague Dawley rats (220 to 250 grams) were housed under constant temperature and humidity conditions. Light was maintained at a 12/12 light dark cycle. Except for 12 hours before the experiment, when food fasting was initiated, all rats had free access to standard rat pellet diet and tap water. The animals were anesthetized by intraperitoneal injection of ketamine and xylazine combination (50 and 10 milligram per kilogram, respectively). […] The catheters were filled with normal saline solution containing 1000 IU/ml of heparin and plugged with a metal pin. Catheters were externalized to the back of the neck region and secured by a polyester felt disk.\nAfter implantation, the rats were individually housed until they regained their preoperative weight and appeared healthy (3 to 4 days post-operation). At this time point (day 0), an osmotic mini-pump (Alza Corp., Palo Alto, Calif.) delivering constant volume (10 μl/hour) of vehicle or drug was connected to one of the intravenous catheters.\nFor inducing tolerance to the tested NO-donor according to the present invention, the animals received 200 μg/hour of the tested compound for 16 hours (short-term-induced tolerance). A similar number of animals were processed by the same surgical procedure and received the vehicle alone (10 μl/hour of a solution consisting of 30% ethanol and 30% propylene glycol in sterile distilled water for injection).\nAt the end of the infusion periods used for the development of tolerance (16 hour), the rats were anesthetized as described above, the two catheters were externalized and the delivering catheters were disconnected from the mini-pump. The abdomen was opened by midline incision and the thoracic aorta were isolated, washed and cleaned from the surrounding tissues. Strips of the treated aortas were pooled in chambers containing Krebs-Hanseliet buffer (10 ml), and exposed to 1 μM of the tested NO-donor (final concentration) for 120 seconds. The tissues were quickly collected and frozen in liquid nitrogen for cGMP measurement, described hereinabove."}, "[3]": {"system": "c-GMP", "test": "Cyclic-GMP measurement in aortic rat tissue (radioimmunoassay)", "assay_type": "cell-based", "details": "rat thoracic aorta, summary of Table 5; in words", "description": "GTN (10^−6 M) was added to the chamber and, 1 minute after exposure to the drug, rings (usually 3-5) were taken, wrapped with aluminum foil and immediately frozen in liquid nitrogen for storage. Control sample group was treated with the vehicle solution only. At the time of analysis, rings were thawed, blotted over a dry gauzed and weighted. A known weight of tissue was homogenized in 2 ml ice-cold modified Hank's balanced salt solution containing (in gram/liter) NaCl 8; KCl 0.4; glucose 1; KH2PO4 0.06; Na2HPO4 0.047; Phenol red 0.017 and further containing 25 mM EDTA (disodium salt). The homogenate was centrifuged at 4000 g (force units) for 10 minutes at 2-4° C. and the supernatant was thereafter transferred into fresh pre-cooled test tube containing 1 ml of acetonitrile. The tubes were vortex mixed for a few seconds and subsequently centrifuged at 4000 g for 5 minutes at 2-4° C., to remove the precipitated protein. Each supernatant was transferred into a clean test tube and evaporated to dryness under a stream of nitrogen at 55° C. The dry residue was reconstituted with 10 volumes of Tris-EDTA buffer pH 7.5 (0.05 M Tris containing 4 mM EDTA). Aliquots of 100 μl of the reconstituted solution in duplicate were used for c-GMP measurements using Amersham RIA kit, as is described in Haj-Yehia & Benet [Pharmacology, 1995, 273, 1, pp. 94-100]. Standard curves were plotted with six concentrations (0, 0.5, 1, 2, 4 and 8 pmoles of c-GMP per tube).\nThe NO-tolerance effect of GTN and NO-donor compounds according to the present invention was measured by following the production of c-GMP in slices of thoracic aorta of rats. Thus, the production of c-GMP was measured as described in the methods section above for the reference NO-donor compound GTN, and for the NO-donors of the present invention Pet-2, Pet-3, Pet-7, Pet-8, Pet-10, Pet-12, Pet-24, Pet-59, Pet-147, Pet-149, Pet-152, Pet-154 and Pet-155."}, "[4]": {"system": "isolated rat aorta", "test": "In vitro induction of tolerance: vasorelaxation of aortic rings pre-exposed to the NO-releasing compound", "assay_type": "cell-based", "details": "vasorelaxation in rings pre-treated with 0.44 mM of the compound versus control rings; in words", "description": "Aortic rings were prepared as described hereinabove, and were exposed to 0.44 mM GTN (vehicle was water:ethanol:propyleneglycol at proportional ratio of 1:1:1) for 1 hour before CCRC construction, to thereby induce tolerance to nitroglycerine. At the end of the tolerance induction period, rings were thrice washed with the path buffer (Krebs-bicrbonate) every 15 minutes for the following hour and then CCRC for vasorelaxation on GTN-induced tolerance rings were constructed for GTN (pretreated versus untreated rings, FIG. 15), in order to verify the ability to induce and measure GTN tolerance induction in vitro\nAttempted induction of tolerance to the NO-donating compounds of the present invention was performed under the same conditions as for GTN. Thus, in an exemplary experiment, rings were exposed to 0.44 mM solution of Pet-3 in the attempt to induce tolerance for Pet-3. CCRC were then measured for the vasorelaxing effect of Pet-3 on a group of rings which were pre-exposed to Pet-3 as to induce tolerance to Pet-3, and for an untreated control group. The above protocol was repeated with Pet-2, Pet-7, Pet-8, Pet-12, Pet-24, Pet-43, Pet-149 and Pet-152."}}}
{"smiles": "O=[N+]([O-])OCC(CO[N+](=O)[O-])O[N+](=O)[O-]", "note": "[GTN, glyceryl trinitrate, reference compound]", "values": [{"measurement": "hypotensive effect on MAP following successive administrations", "setting": "[1]", "value": "attenuation"}, {"measurement": "level of cGMP following a repeated treatment in vivo", "setting": "[2]; aorta of rats infused 200 μg/hour for 16 hours, then exposed to 1 μM compound for 120 seconds", "value": "decreased"}, {"measurement": "tolerance induction in vivo", "setting": "[2]; cGMP accumulation in isolated aorta of rats pre-treated in vivo with the compound", "value": "tolerance inducing effect"}, {"measurement": "c-GMP level following a repeated treatment", "setting": "[3]", "value": "significantly reduced"}, {"measurement": "tolerance induction in vitro", "setting": "[4]", "value": "tolerance induced"}]}
